These results are taken from article PMC6435542 (Bioscience Reports, 2018).

For this test, the target named is T1, CFTR-associated ligand (CAL) PDZ domain (Homo sapiens, UniProt Q9HD26).
T1 construct: gene GOPC; CAL PDZ domain (CALP; UniProt Q9HD26-2)
In words: MALDI-TOF MS of covalent adduct; no effect on peptide affinity by FP. The format is binding.

Regarding `CCN1C(=O)C=CC1=O` [EM, N-ethyl-maleimide], the EM is 90–92 % covalent modification.
